From patent US6465522B1, “Anthraquinone anticancer drugs” (priority 1998, dated 2002)
Where two headings read alike, the source gives them in different places.

What was measured:
Assay type in all cases: cell-based
2780CP = assay: MTT growth inhibition, 2780CP cisplatin resistant ovarian cancer cell line
Description: (§1) The cells used for the anticancer activity measurements were the parental ovarian cell line designated as A2780, the doxorubicin-resistant variant designated as 2780AD, and the cisplatin-resistant variant designated as 2780CP (also known as CP70). Drug sensitivity in these cell lines was measured by the standard MTT assay (Carmichael et al., 1987, Cancer Research, 47: 936) with a 24 hour drug exposure time. The values obtained are mean values of triplicate measurements.

2780AD = assay: MTT growth inhibition, 2780AD adriamycin (doxorubicin) resistant ovarian cancer cell line
Description: as §1

A2780 = assay: MTT growth inhibition, A2780 parental ovarian cancer cell line; conditions: MTT assay, 24 hour drug exposure, mean of triplicate, read-out: Growth Inhibition of Ovarian Cancer Cell Lines (IC50/nM) A2780
Description: as §1

SKOV-3 = assay: Antitumour activity in drug resistant ovarian cancer cell line SKOV-3; conditions: SKOV-3 drug resistant ovarian cancer cell line
CH1cisR = assay: Antitumour activity in drug resistant ovarian cancer cell line CH1cisR
[1] = 2780CP cisplatin resistant variant, MTT assay, 24 hour drug exposure, mean of triplicate, read-out: Growth Inhibition of Ovarian Cancer Cell Lines (IC50/nM) 2780CP
[2] = 2780AD adriamycin resistant variant, MTT assay, 24 hour drug exposure, mean of triplicate, read-out: Growth Inhibition of Ovarian Cancer Cell Lines (IC50/nM) 2780AD

SMILES	IC50 (2780CP; [1]) [nM]	IC50 (2780AD; [2]) [nM]	IC50 (A2780; Homo sapiens) [nM]	IC50 (A2780) [nM]	IC50 (2780CP; 2780CP, read-out: IC50 2780CP) [nM]	IC50 (2780AD; 2780AD, read-out: IC50 2780AD) [nM]	IC50 (SKOV-3) [nM]	IC50 (CH1cisR) [nM]
COc1cccc2c1C(=O)c1c(O)c3c(c(O)c1C2=O)C[C@@](O)(C(=O)CO)C[C@@H]3O[C@H]1C[C@H](N)[C@H](O)[C@H](C)O1 [Adriamycin, adriamycin]	13.3 ± 0.9	4860 ± 510	5 ± 1.1					
N.N.[Cl][Pt][Cl] [Cisplatin, cisplatin]	2620 ± 730	3020 ± 220		340 ± 60				
CN(C)CCNc1ccc(NCCN(CCCl)CCCl)c2c1C(=O)c1c(O)ccc(O)c1C2=O [Compound (2)]	11.8 ± 1.4			4 ± 0.6	12	16	490	19
